Assay results reported in patent publication US20090142766A1, “METHODS FOR MEASURING THE METABOLISM OF CNS DERIVED BIOMOLECULES IN VIVO” (Washington University in St. Louis, priority 2007, published 2009).

What was measured:
[1] = Aβ fractional synthesis and clearance rate in CSF (immunoprecipitation-MS/MS after ^13C6-leucine labeling); format: in vivo, human; conditions: 6 healthy young participants
Text: Protein production and clearance are important parameters that are tightly regulated and reflect normal physiology as well as disease states. Previous studies of protein metabolism in humans have focused on whole body or peripheral body proteins, but not on proteins produced in the central nervous system (CNS). No methods were previously available to quantify protein production or clearance rates in the CNS of humans. Such a method would be valuable to assess not only Aβ production or clearance rates in humans but also the metabolism of a variety other proteins relevant to diseases of the CNS. In order to address critical questions about underlying AD pathogenesis and Aβ metabolism, a method for quantifying Aβ fractional synthesis rate (FSR) and fractional clearance rate (FCR) in vivo in the CNS of humans was developed.
For each sample of CSF collected, the ratio of labeled to unlabeled Aβ was determined by immunoprecipitation-MS/MS, as described above. […]
The fractional synthesis rate (FSR) was calculated using the standard formula, presented below: […]
The fractional clearance rate (FCR) was calculated by fitting the slope of the natural logarithm of the clearance portion of the labeled Aβ curve, according to the following formula: […]

[2] = cited from earlier work
[3] = Aβ clearance in cortex of APPswe/PS1deltaE9 double transgenic mice; format: in vivo; conditions: cortex, 3, 6 and 18 hr after ^13C6-leucine 200 μg/g i.p.
Protocol: To measure the brain Aβ clearance rate in mice, the method developed to assess ApoE clearance described above in Example 4 was performed in APPswe/PS1deltaE9 double transgenic mice (line #85; Jackson Labs, Bar Harbor, Me.). After a bolus intraperitioneal injection of ^13C6-leucine (200 μg/g), cortical brain tissue was harvested at 3, 6, and 18 hr post-injection (n=3) and lysed (lysis buffer, 1% Triton with PBS). Aβ was immunoprecipitated with an Aβ monoclonal antibody (HJ5.2, directed to Aβ 13-28) and then analyzed by nano-LC-MS/MS as described above. […] The clearance rate of soluble Aβ from cortex of transgenic mice was very similar with that of Aβ from human CSF as described by Bateman et al. 2006, supra.

Aβ: endogenous amyloid-beta peptide (SEQ ID NO:1) produced in the CNS from amyloid precursor protein
average fractional clearance rate (FCR) ([1]; 24 to 36 hours): 8.3 %/hr
average fractional synthesis rate (FSR) ([1]; slope 6 to 15 hours): 7.6 %/hr
t1/2 in brain interstitial fluid [2]: 1 to 2 h
fractional clearance rate (FCR) of soluble cortical Aβ [3]: 7.62±1.25 % per hour
